Measurements as given in US20260125417A1, “GLUCOCORTICOID RECEPTOR AGONISTS” (ELI LILLY AND COMPANY, priority 2022, published 2026).
pEC50: −log10 of the molar value.

The compounds below were run against T1, GR-LBD (Homo sapiens, UniProt P04150) (assay: hGR CoActivator Recruitment Assay (LanthaScreen TR-Fret GR Coactivator Assay)). Details: Fluorescein-SRC1-4 recruitment to GR-LBD, 10-point dilution, top concentration 200 nM, positive control 4 μM dexamethasone.
T1 construct: purchased Life Technologies A15899
T1 sequence (P04150 524-758 limits assumed): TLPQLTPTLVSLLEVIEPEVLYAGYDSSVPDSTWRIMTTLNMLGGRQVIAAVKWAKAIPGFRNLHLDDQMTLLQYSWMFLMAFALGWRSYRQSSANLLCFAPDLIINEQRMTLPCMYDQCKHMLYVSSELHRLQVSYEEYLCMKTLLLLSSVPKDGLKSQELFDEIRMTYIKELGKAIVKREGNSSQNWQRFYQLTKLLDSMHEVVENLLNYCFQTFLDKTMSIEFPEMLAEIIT
Type: biochemical
Procedure: Example 4. hGR CoActivator Recruitment Assay The activity of glucocorticoid compounds was measured using the LanthaScreen TR-Fret GR Coactivator Assay from Life Technologies (A15899). The compounds were acoustically transferred to an assay plate in a 3-fold 10-point serial dilution with atop concentration of 200 nM. Ten microliters of a 2× solution of GR-LBD was added to the compound plate and incubated for 10 min. Then ten microliters of a 2× solution of Fluoresein-SRC1-4 and Tb labelled anti-GST antibody were added to the plate. The plate was incubated in the dark for two hours and then read on an Envision plate reader, with excitation at 340 nm and emission at 520 nm (Fluorescein) and 490 nm (Terbium). The emission ratio of 520/490 was analyzed in Genedata. To obtain percent activity, the data was compared to a negative control of DMSO and positive control of 4 μM dexamethasone.

| SMILES | pEC50 |
| --- | --- |
| COc1ccc(CCc2ccc(N)cc2)c(F)c1[C@H]1O[C@@H]2C[C@H]3[C@@H]4CCC5=CC(=O)C=C[C@]5(C)[C@H]4[C@@H](O)C[C@]3(C)[C@]2(C(=O)CO)O1 [compound 3, (6aR,6bS,7S,8aS,8bS,10S,11aR,12aS,12bS)-10-(3-(4-aminophenethyl)-2-fluoro-6-methoxyphenyl)-7-hydroxy-8b-(2-hydroxyacetyl)-6a,8a-dimethyl-1,2,6a,6b,7,8,8a,8b,11a,12,12a,12b-dodecahydro-4H-naphtho[2′,1′:4,5]indeno[1,2-d][1,3]dioxol-4-one] | 8.78 |
| [2H]C([2H])([2H])Oc1ccc(OCc2cccc(N)c2)c(F)c1[C@H]1O[C@@H]2C[C@H]3[C@@H]4CCC5=CC(=O)C=C[C@]5(C)[C@H]4[C@@H](O)C[C@]3(C)[C@]2(C(=O)CO)O1 [Compound No. 1] | 8.71 |
| CCc1ccc(OCc2cccc(N)c2)c(F)c1[C@H]1O[C@@H]2C[C@H]3[C@@H]4CCC5=CC(=O)C=C[C@]5(C)[C@H]4[C@@H](O)C[C@]3(C)[C@]2(C(=O)CO)O1 [compound 2, (6aR,6bS,7S,8aS,8bS,10S,11aR,12aS,12bS)-10-(3-((3-aminobenzyl)oxy)-6-ethyl-2-fluorophenyl)-7-hydroxy-8b-(2-hydroxyacetyl)-6a,8a-dimethyl-1,2,6a,6b,7,8,8a,8b,11a,12,12a,12b-dodecahydro-4H-naphtho[2′,1′:4,5]indeno[1,2-d][1,3]dioxol-4-one] | 8.82 |

Next, values leading:

| pEC50 | SMILES |
| --- | --- |
| 8.83 | COc1ccc(OCCc2ccc(N)cc2)c(F)c1[C@H]1O[C@@H]2C[C@H]3[C@@H]4CCC5=CC(=O)C=C[C@]5(C)[C@H]4[C@@H](O)C[C@]3(C)[C@]2(C(=O)CO)O1 [compound 4, (6aR,6bS,7S,8aS,8bS,10S,11aR,12aS,12bS)-10-(3-(4-aminophenethoxy)-2-fluoro-6-methoxyphenyl)-7-hydroxy-8b-(2-hydroxyacetyl)-6a,8a-dimethyl-1,2,6a,6b,7,8,8a,8b,11a,12,12a,12b-dodecahydro-4H-naphtho[2′,1′:4,5]indeno[1,2-d][1,3]dioxol-4-one] |
| 8.65 | COc1ccc(OCCc2cccc(N)c2)c(F)c1[C@H]1O[C@@H]2C[C@H]3[C@@H]4CCC5=CC(=O)C=C[C@]5(C)[C@H]4[C@@H](O)C[C@]3(C)[C@]2(C(=O)CO)O1 [compound 5, (6aR,6bS,7S,8aS,8bS,10S,11aR,12aS,12bS)-10-(3-(3-aminophenethoxy)-2-fluoro-6-methoxyphenyl)-7-hydroxy-8b-(2-hydroxyacetyl)-6a,8a-dimethyl-1,2,6a,6b,7,8,8a,8b,11a,12,12a,12b-dodecahydro-4H-naphtho[2′,1′:4,5]indeno[1,2-d][1,3]dioxol-4-one] |
